Measurements published in patent publication US8367831B2, “Heterocyclic compound or salt thereof and intermediate thereof” (priority 2006, dated 2013).
Values after ≈ are worked out from the molar mass of the structure shown. Structures can show the parent of a compound that is named as a salt. Where two headings read alike, the source gives them in different places.

Tests used:
Assay type in all cases: cell-based
S. aureus F-3095 = experiment: Susceptibility test 1: MIC by micro-dilution method; details: Staphylococcus aureus
Experimental: (§1) Test substances were initially dissolved in dimethylsulfoxide. Antibacterial activities (MICs) of the same compounds were determined by the micro-dilution method as recommended by the Japanese Society of Chemotherapy.
(§2) The bacteria cultured on Mueller-Hinton agar (MHA) plates at 35° C. overnight were suspended in sterile physiological saline in a concentration that was equivalent to 0.5 McFarland. The bacterial inoculum was prepared by 10-fold dilution of this suspension. Approximately 0.005 mL of the bacterial inoculum was inoculated into Cation-adjusted Mueller-Hinton broth (CAMHB, 100 μL/well) containing the test substance and was incubated at 35° C. overnight. The lowest concentration of the test substance at which no bacterial growth was macroscopically observed was determined as the MIC.

S. aureus FDA209P = experiment: as above; details: Staphylococcus aureus, read-out: MIC (μg/mL) S. aureus FDA209P
Experimental: as §1, §2

Cytotoxicity test (XTT) = details: African green monkey, vero cells, 3 days incubation, absorbance 450 nm, read-out: CC50 (concentration when cell proliferation was inhibited by 50%)
Experimental: Each test substance was dissolved in dimethyl sulfoxide and was prepared to each concentration with E-MEM containing 10% FBS, and then 0.1 mL of this solution was dispensed into each well of a 96-well microplate. A vero cell suspension containing 3×10^4 cells/mL was prepared with E-MEM containing 10% FBS, and 0.1 mL of the suspension was inoculated to each well. After incubation in 5% CO2 at 37° C. for 3 days, 50 μL of E-MEM containing 1 mg/mL of 2,3-bis-(2-methoxy-4-nitro-5-sulfophenyl)-5-[(phenylamino)carbonyl]-2H-tetrazolium, inner salt, monosodium salt (XTT) and 25 μM of phenazine methosulfate (PMS) was added to each well. After about 2 hours, the absorbance at 450 nm was measured with a microplate reader.
The absorbance ratio of each well supplied with the test substance and the control not containing the test substance was calculated, and the concentration of each compound when cell proliferation was inhibited by 50% (CC50; μg/mL) was calculated.

[1] = F3095, read-out: MIC (μg/mL) S. aureus F-3095
[2] = F3095, F-3095 (MDRSA), CAMHB, 35° C. overnight, lowest concentration with no macroscopic growth, read-out: MIC (μg/mL) S. aureus F-3095
[3] = CAMHB, 35° C. overnight, lowest concentration with no macroscopic growth

SMILES	MIC (S. aureus F-3095; [1])	MIC (S. aureus FDA209P)	MIC (S. aureus F-3095; [2])	MIC (S. aureus FDA209P; [3])	CC50 at 3 days (Cytotoxicity test (XTT))
COc1ccc2ccc(=O)n(CCN3CCC(NCc4cc5c(cn4)OCCO5)CC3)c2n1 [Example 45, 1-(2-(4-((2,3-dihydro(1,4)dioxino(2,3-c)pyridin-7-ylmethyl)amino)piperidin-1-yl)ethyl)-7-methoxy-1,8-naphthyridin-2(1H)-one hydrochloride]	0.0625 µg/mL	0.0313 µg/mL			
COc1cnc2ccc(=O)n(CCN3CCC(NCc4cncc(-c5ccco5)c4)CC3)c2c1 [Example 147, 1-(2-(4-(((5-(2-furyl)pyridin-3-yl)methyl)amino)piperidin-1-yl)ethyl)-7-methoxy-1,5-naphthyridin-2(1H)-one]			0.0625 µg/mL (≈ 0.136 µM)	0.0313 µg/mL (≈ 0.0681 µM)	
COc1ccc2ccc(=O)n(CCN3CCC(NCc4ccc5c(c4)OCCO5)CC3)c2n1 [Example 44, 1-(2-(4-((2,3-dihydro-1,4-benzodioxin-6-ylmethyl)amino)piperidin-1-yl)ethyl)-7-methoxy-1,8-naphthyridin-2(1H)-one hydrochloride]	0.0313 µg/mL	0.0313 µg/mL			
COc1cnc2ccc(=O)n(CCN3CCC(NCc4ccc5c(n4)NC(=O)CS5)CC3)c2c1 [Example 90, 6-(((1-(2-(7-methoxy-2-oxo-1,5-naphthyridin-1(2H)-yl)ethyl)piperidin-4-yl)amino)methyl)-2H-pyrido(3,2-b)(1,4)thiazin-3(4H)-one]			0.0313 µg/mL (≈ 0.0651 µM)	0.0313 µg/mL (≈ 0.0651 µM)	≥ 51.2 µg/mL
O=c1ccc2ncc(F)cc2n1CCN1CCC(NCc2cc(-c3ccco3)on2)CC1 [Example 143, 7-fluoro-1-(2-(4-(((5-(2-furyl)isoxazol-3-yl)methyl)amino)piperidin-1-yl)ethyl)-1,5-naphthyridin-2(1H)-one]			0.0313 µg/mL (≈ 0.0715 µM)	0.0313 µg/mL (≈ 0.0715 µM)	
COc1ccc2ncc(=O)n(CCN3CCC(NCc4ccc5c(n4)NC(=O)CS5)CC3)c2n1 [Example 55, 6-(((1-(2-(6-methoxy-3-oxopyrido(2,3-b)pyrazin-4(3H)-yl)ethyl)piperidin-4-yl)amino)methyl)-2H-pyrido(3,2-b)(1,4)thiazin-3(4H)-one]			0.0078 µg/mL (≈ 0.0162 µM)	0.0039 µg/mL (≈ 0.0081 µM)	≥ 51.2 µg/mL
COc1cnc2ccc(=O)n(CCN3CCC(NCc4ccc5c(n4)NC(=O)CO5)CC3)c2c1 [Example 79, 1-(2-(4-((3-oxo-3,4-dihydro-2H-pyrido(3,2-b)(1,4)oxazin-6-yl)methylamino)piperidin-1-yl)ethyl)-7-methoxy-1,5-naphthyridin-2(1H)-one hydrochloride]	0.0156 µg/mL	0.0078 µg/mL			≥ 51.2 µg/mL
COc1cnc2ccc(=O)n(CCN3CCC(NCc4cnc5c(c4)OCCO5)CC3)c2c1 [Example 80, 1-(2-(4-((2,3-dihydro(1,4)dioxino(2,3-b)pyridin-7-yl)methylamino)piperidin-1-yl)ethyl)-7-methoxy-1,5-naphthyridin-2(1H)-one hydrochloride]	0.0156 µg/mL	0.0078 µg/mL			≥ 51.2 µg/mL
O=C1CSc2ccc(CNC3CCN(CCn4c(=O)ccc5ccncc54)CC3)nc2N1 [Example 33, 6-(((1-(2-(2-oxo-1,7-naphthyridin-1(2H)-yl)ethyl)piperidin-4-yl)amino)methyl)-2H-pyrido(3,2-b)(1,4)thiazin-3(4H)-one]			0.0313 µg/mL (≈ 0.0695 µM)	0.0313 µg/mL (≈ 0.0695 µM)	≥ 51.2 µg/mL
COc1ccc2ncc(=O)n(CCN3CCC(NCc4cc5c(cn4)OCCO5)CC3)c2n1 [Example 10, 4-(2-(4-((2,3-dihydro(1,4)dioxino(2,3-c)pyridin-7-ylmethyl)amino)piperidin-1-yl)ethyl)-6-methoxypyrido(2,3-b)pyrazin-3(4H)-one hydrochloride]	0.0156 µg/mL	0.0156 µg/mL			≥ 51.2 µg/mL
O=c1ccc2ncc(F)cc2n1CCN1CCC(NCc2cc3c(cn2)CCCO3)CC1 [Example 162, 1-(2-(4-((3,4-dihydro-2H-pyrano(3,2-c)pyridin-7-ylmethyl)amino)piperidin-1-yl)ethyl)-7-fluoro-1,5-naphthyridin-2(1H)-one hydrochloride]	0.0625 µg/mL	0.0313 µg/mL			
COc1cnc2ccc(=O)n(CCN3CCC(NCc4cc5c(cn4)OCCCO5)CC3)c2c1 [Example 118, 1-(2-(4-((3,4-dihydro-2H-(1,4)dioxepino(2,3-c)pyridin-8-ylmethyl)amino)piperidin-1-yl)ethyl)-7-methoxy-1,5-naphthyridin-2(1H)-one hydrochloride]	0.0625 µg/mL	0.0625 µg/mL			
CCc1ncc(CNC2CCN(CCn3c(=O)ccc4ncc(OC)cc43)CC2)cc1F [Example 137, 1-(2-(4-(((6-ethyl-5-fluoropyridin-3-yl)methyl)amino)piperidin-1-yl)ethyl)-7-methoxy-1,5-naphthyridin-2(1H)-one hydrochloride]	0.0625 µg/mL	0.0313 µg/mL			
COc1cnc2ccc(=O)n(CCN3CCC(NCc4cnc(C)c(F)c4)CC3)c2n1 [Example 96, 5-(2-(4-(((5-fluoro-6-methylpyridin-3-yl)methyl)amino)piperidin-1-yl)ethyl)-3-methoxypyrido(2,3-b)pyrazin-6(5H)-one]			0.0625 µg/mL (≈ 0.147 µM)	0.0625 µg/mL (≈ 0.147 µM)	≥ 51.2 µg/mL
Cc1ccc(CNC2CCN(CCn3c(=O)ccc4ccncc43)CC2)cc1F [Example 8, 1-(2-(4-((3-fluoro-4-methylbenzyl)amino)piperidin-1-yl)ethyl)-1,7-naphthyridin-2(1H)-one hydrochloride]	0.0313 µg/mL	0.0313 µg/mL			≥ 51.2 µg/mL
O=C1CSc2cc(Cl)c(CNC3CCN(CCn4c(=O)ccc5ccncc54)CC3)nc2N1 [Example 30, 7-chloro-6-(((1-(2-(2-oxo-1,7-naphthyridin-1(2H)-yl)ethyl)piperidin-4-yl)amino)methyl)-2H-pyrido(3,2-b)(1,4)thiazin-3(4H)-one]			0.0313 µg/mL (≈ 0.0645 µM)	0.0313 µg/mL (≈ 0.0645 µM)	≥ 51.2 µg/mL
O=c1ccc2ccncc2n1CCN1CCC(NCc2cc(-c3cccs3)on2)CC1 [Example 35, 1-(2-(4-(((5-(2-thienyl)isoxazol-3-yl)methyl)amino)piperidin-1-yl)ethyl)-1,7-naphthyridin-2(1H)-one hydrochloride]	0.0313 µg/mL	0.0313 µg/mL			≥ 51.2 µg/mL
COc1cnc2ccc(=O)n(CCN3CCC(NCc4cc(-c5ccsc5)on4)CC3)c2c1 [Example 133, 7-methoxy-1-(2-(4-(((5-(3-thienyl)isoxazol-3-yl)methyl)amino)piperidin-1-yl)ethyl)-1,5-naphthyridin-2(1H)-one]			0.0156 µg/mL (≈ 0.0335 µM)	0.0078 µg/mL (≈ 0.0168 µM)	
Cc1cc(=O)n(CCN2CCC(NCc3cc4c(cn3)OCCO4)CC2)c2cc(F)cnc12 [Example 146, 1-(2-(4-((2,3-dihydro(1,4)dioxino(2,3-c)pyridin-7-ylmethyl)amino)piperidin-1-yl)ethyl)-7-fluoro-4-methyl-1,5-naphthyridin-2(1H)-one hydrochloride]	0.0625 µg/mL	0.0625 µg/mL			
COc1cnc2ccc(=O)n(CCN3CCC(NCc4ccc(C)c(F)c4)CC3)c2c1 [Example 17, 1-(2-(4-((3-fluoro-4-methylbenzyl)amino)piperidin-1-yl)ethyl)-7-methoxy-1,5-naphthyridin-2(1H)-one hydrochloride]	0.0313 µg/mL	0.0039 µg/mL			
COc1cnc2ccc(=O)n(CCN3CCC(NCc4cc5c(cn4)OCCO5)[C@H](O)C3)c2c1 (stereo in doubt) [Example 95, 1-(2-((3R,4R)-4-((2,3-dihydro(1,4)dioxino(2,3-c)pyridin-7-ylmethyl)amino)-3-hydroxypiperidin-1-yl)ethyl)-7-methoxy-1,5-naphthyridin-2(1H)-one]	0.0625 µg/mL (≈ 0.134 µM)	0.0313 µg/mL (≈ 0.0669 µM)			≥ 51.2 µg/mL
CCc1ccc(CNC2CCN(CCn3c(=O)ccc4ncc(OC)cc43)CC2)nc1 [Example 123, 1-(2-(4-(((5-ethylpyridin-2-yl)methyl)amino)piperidin-1-yl)ethyl)-7-methoxy-1,5-naphthyridin-2(1H)-one hydrochloride]	0.125 µg/mL	0.0313 µg/mL			
COc1cnc2ccc(=O)n(CCN3CCC(NCc4cc5c(cn4)OCCC5)CC3)c2c1 [Example 144, 1-(2-(4-((3,4-dihydro-2H-pyrano(2,3-c)pyridin-6-ylmethyl)amino)piperidin-1-yl)ethyl)-7-methoxy-1,5-naphthyridin-2(1H)-one hydrochloride]	0.0313 µg/mL	0.0313 µg/mL			
COc1cnc2ccc(=O)n(CCN3CCC(NCc4cncc(-c5cccs5)c4)CC3)c2c1 [Example 141, 7-methoxy-1-(2-(4-(((5-(2-thienyl)pyridin-3-yl)methyl)amino)piperidin-1-yl)ethyl)-1,5-naphthyridin-2(1H)-one hydrochloride]	0.0313 µg/mL	0.0313 µg/mL			
